Among the data in the Deep4Chem optical property database are emission maximum values, retold here.

Each structure is given as a SMILES string.

The nature of one series: solvent given as SMILES. Conditions: in C1CCCCC1.
In turn, `COC(=O)c1ccc(C#Cc2ccc(N(C)C)cc2)cc1` returned an emission maximum of 426 nm.

Still in this series, the particulars now being: in C1CCOC1.
Take `CN(C)c1ccc(C2=Nc3sc4cc(C(F)(F)F)ccc4[n+]3[B-](F)(F)O2)cc1`: the emission maximum worked out at 486 nm.

As to `COC(=O)c1ccc(C#Cc2ccc(N(C)C)cc2)cc1`, the emission maximum is 482 nm.

Take `CCOC(=O)C1=CN(c2ccccc2)C=C(C(=O)OCC)C1`: the emission maximum was 426 nm.

`COc1ccc(/C=C/C2=CC(/C=C/c3ccc(OC)cc3)=[O+][B-](OC(C)=O)(OC(C)=O)O2)cc1` returned an emission maximum of 518 nm.

Turning to `F[B-]1(F)n2c(c(-c3ccccc3)c(-c3ccccc3)c2-c2ccccc2)C(c2ccccc2)=C2C(c3ccccc3)=C(c3ccccc3)C(c3ccccc3)=[N+]21`, the emission maximum is given as 613 nm.

As to `CC(=O)c1ccc2ccc3c(NCCC(=O)NCCCCCCc4nc5c(=O)[nH]c(N)nc5n4[C@H]4C[C@H](O)[C@@H](CO)O4)ccc4ccc1c2c43`, the emission maximum was 523 nm.

As to `c1cc2ccc1-c1ccc(cc1)-c1ccc([se]1)-c1ccc(cc1)-c1ccc(cc1)-c1ccc([se]1)-c1ccc(cc1)-c1ccc(cc1)-c1ccc([se]1)-c1ccc(cc1)-c1ccc(cc1)-c1ccc-2[se]1`, the emission maximum stood at 492 nm.

Still in this series, the particulars now being: in C1COCCO1.
In turn, `COC(=O)c1ccc(C#Cc2ccc(N(C)C)cc2)cc1` returned an emission maximum of 450 nm.

With `CCn1c(=O)nc2n(C)c3cc(C)ccc3nc-2c1=O`, the emission maximum is given as 527 nm.

For the compound `CCN(CC)c1ccc2nc3c4ccccc4c(=O)cc-3oc2c1`, the emission maximum turned out to be 582 nm.

The series is the same for the next values; noted with them: in CC1CCCCC1.
In turn, `C(=C\c1c2ccccc2cc2ccccc12)/c1ccc2ccccc2c1` returned an emission maximum of 488 nm.

The same series, now with this note: in CC1CCCO1.
Consider `COC(=O)c1ccc(C#Cc2ccc(N(C)C)cc2)cc1`, for which the emission maximum turned out to be 464.51 nm.

The same series, now with this note: in CC#N.
On to `CN(C)c1ccc(C2=Nc3sc4cc(C(F)(F)F)ccc4[n+]3[B-](F)(F)O2)cc1`, for which the emission maximum stood at 500 nm.

Consider `COC(=O)c1ccc(C#Cc2ccc(N(C)C)cc2)cc1`, for which the emission maximum is listed as 544.01 nm.

As for `COc1ccc(/C=C/C2=CC(/C=C/c3ccc(OC)cc3)=[O+][B-](OC(C)=O)(OC(C)=O)O2)cc1`, the emission maximum is 541 nm.

Turning to `CC1=CC(C)=[N+]2C1=C(c1c3ccccc3c(C)c3ccccc13)c1c(C)cc(C)n1[B-]2(F)F`, the emission maximum came out at 518 nm.

For `CC(=O)c1ccc2ccc3c(NCCC(=O)NCCCCCCc4nc5c(=O)[nH]c(N)nc5n4[C@H]4C[C@H](O)[C@@H](CO)O4)ccc4ccc1c2c43`, the emission maximum is given as 546 nm.

Take `C(#Cc1cccc(C#Cc2ccc(-n3c4ccccc4c4ccccc43)cc2)c1)c1ccc(-n2c3ccccc3c3ccccc32)cc1`: the emission maximum turned out to be 425 nm.

`CCn1c(=O)nc2n(C)c3cc(C)ccc3nc-2c1=O`: the emission maximum was determined as 530 nm.

With `CCN(CC)c1ccc2nc3c4ccccc4c(=O)cc-3oc2c1`, the emission maximum is 620 nm.

`COC(=O)c1cc(=O)n(C)c2cc(-c3ccccc3OC)sc12` displayed an emission maximum of 468 nm.

`CCOC(=O)CC[N+]1=c2cc3c(cc2CCC1)=Cc1c(c2cc4c5c(c2oc1=O)CCCN5CCC4)O3` displayed an emission maximum of 687 nm.

In turn, `c1ccc(Nc2nc(Nc3ccccc3)nc(Nc3ccc4ccc5cccc6ccc3c4c56)n2)cc1` displayed an emission maximum of 395 nm.

For `C(=C\c1c2ccccc2cc2ccccc12)/c1ccc2ccccc2c1`, the emission maximum was determined as 490 nm.

In turn, `Cc1cc(=O)[nH]c(=O)[nH]1` had an emission maximum of 308 nm.

Still in this series, the particulars now being: in CC(C)=O.
Compound `CN(C)c1ccc(C2=Nc3sc4cc(C(F)(F)F)ccc4[n+]3[B-](F)(F)O2)cc1` displayed an emission maximum of 495 nm.

Consider `COC(=O)c1ccc(C#Cc2ccc(N(C)C)cc2)cc1`, for which the emission maximum is recorded as 426.99 nm.

As for `COc1ccc(/C=C/C2=CC(/C=C/c3ccc(OC)cc3)=[O+][B-](OC(C)=O)(OC(C)=O)O2)cc1`, the emission maximum was determined as 531 nm.

`CCN(CC)c1ccc2nc3c4ccccc4c(=O)cc-3oc2c1`: the emission maximum turned out to be 614 nm.

The same series, now with this note: in CC(C)CC(C)(C)C.
The compound `COC(=O)c1ccc(C#Cc2ccc(N(C)C)cc2)cc1` returned an emission maximum of 377.5 nm.

Staying with this series, now noted: in CC(C)O.
`COC(=O)c1ccc(C#Cc2ccc(N(C)C)cc2)cc1` had an emission maximum of 441.5 nm.

In turn, `CC(=O)c1ccc2ccc3c(NCCC(=O)NCCCCCCc4nc5c(=O)[nH]c(N)nc5n4[C@H]4C[C@H](O)[C@@H](CO)O4)ccc4ccc1c2c43` had an emission maximum of 557 nm.

Staying with this series, now noted: in CCCCC.
As for `C(#Cc1cccc(C#Cc2ccc(-n3c4ccccc4c4ccccc43)cc2)c1)c1ccc(-n2c3ccccc3c3ccccc32)cc1`, the emission maximum was found to be 366 nm.

The same series, now with this note: in CCCCCC.
For `COC(=O)c1c(C(=O)OC)c2ccc(C)nn2c1C`, the emission maximum amounted to 449 nm.

With `CC1=CC(C)=[N+]2C1=C(c1c3ccccc3c(C)c3ccccc13)c1c(C)cc(C)n1[B-]2(F)F`, the emission maximum is 512 nm.

`CCN(CC)c1ccc2nc3c4ccccc4c(=O)cc-3oc2c1` yielded an emission maximum of 532 nm.

The series is the same for the next values; noted with them: in CCCCCCCCCCCCCCCC
For the compound `COC(=O)c1ccc(C#Cc2ccc(N(C)C)cc2)cc1`, the emission maximum stood at 370 nm.

The series is the same for the next values; noted with them: in CCCCCCCCCCCCCCCCCl.
The compound `COC(=O)c1ccc(C#Cc2ccc(N(C)C)cc2)cc1` had an emission maximum of 382.5 nm.

The same series, now with this note: in CCCCOCCCC
Compound `c1ccc(Nc2nc(Nc3ccccc3)nc(Nc3ccc4ccc5cccc6ccc3c4c56)n2)cc1` showed an emission maximum of 394 nm.

Staying with this series, now noted: in CCO.
In turn, `CC1=CC(C)=[N+]2C1=C(c1c3ccccc3c(C)c3ccccc13)c1c(C)cc(C)n1[B-]2(F)F` registered an emission maximum of 516 nm.

`CC(=O)c1ccc2ccc3c(NCCC(=O)NCCCCCCc4nc5c(=O)[nH]c(N)nc5n4[C@H]4C[C@H](O)[C@@H](CO)O4)ccc4ccc1c2c43`: the emission maximum is 559 nm.

Take `CC[N+](CC)=c1ccc2cc3oc4cc(N)ccc4c3oc-2c1`: the emission maximum was 629 nm.

Turning to `CCN(CC)c1ccc2nc3c4ccccc4c(=O)cc-3oc2c1`, the emission maximum stood at 638 nm.

On to `CC[N+](CC)=c1ccc2c(C(F)(F)F)c3c(oc-2c1)-c1ccc(N(C)C)cc1CC3`, for which the emission maximum is recorded as 425 nm.

The series is the same for the next values; noted with them: in CCOC(C)=O.
The compound `COC(=O)c1ccc(C#Cc2ccc(N(C)C)cc2)cc1` gave an emission maximum of 470.5 nm.

Take `CCN(CC)c1ccc2nc3c4ccccc4c(=O)cc-3oc2c1`: the emission maximum was determined as 594 nm.

The series is the same for the next values; noted with them: in CCOCC.
With `COC(=O)c1ccc(C#Cc2ccc(N(C)C)cc2)cc1`, the emission maximum was found to be 458.51 nm.

The series is the same for the next values; noted with them: in CN(C)C=O.
`COC(=O)c1ccc(C#Cc2ccc(N(C)C)cc2)cc1` had an emission maximum of 524 nm.

`CC1=CC(C)=[N+]2C1=C(c1c3ccccc3c(C)c3ccccc13)c1c(C)cc(C)n1[B-]2(F)F` had an emission maximum of 519 nm.

`CC(=O)c1ccc2ccc3c(NCCC(=O)NCCCCCCc4nc5c(=O)[nH]c(N)nc5n4[C@H]4C[C@H](O)[C@@H](CO)O4)ccc4ccc1c2c43` returned an emission maximum of 543 nm.

Staying with this series, now noted: in CO.
`COC(=O)c1ccc(C#Cc2ccc(N(C)C)cc2)cc1`: the emission maximum is on record as 465.01 nm.

Consider `CCOC(=O)C1=CN(c2ccccc2)C=C(C(=O)OCC)C1`, for which the emission maximum was determined as 441 nm.

`COc1ccc(/C=C/c2ccc(/C=C/c3cc[n+]4ccc(/C=C/c5ccc(/C=C/c6ccc(OC)cc6)cc5)cc4c3)cc2)cc1` displayed an emission maximum of 620 nm.

In turn, `CC(=O)c1ccc2ccc3c(NCCC(=O)NCCCCCCc4nc5c(=O)[nH]c(N)nc5n4[C@H]4C[C@H](O)[C@@H](CO)O4)ccc4ccc1c2c43` returned an emission maximum of 565 nm.

As for `Cc1nc2c(ccc3c2sc(/C=C/c2ccc(N(CCO)CCO)cc2)[n+]3C)s1`, the emission maximum is 601 nm.

On to `C(#Cc1cccc(C#Cc2ccc(-n3c4ccccc4c4ccccc43)cc2)c1)c1ccc(-n2c3ccccc3c3ccccc32)cc1`, for which the emission maximum amounted to 412 nm.

`CCn1c(=O)nc2n(C)c3cc(C)ccc3nc-2c1=O` yielded an emission maximum of 532 nm.
